Read-outs that look alike come from different tables or passages of the source.
Columns and labels:
[1] = target: T1, E. coli DNA gyrase (Escherichia coli, UniProt P0AES4+P0AES6); assay: E. coli DNA gyrase supercoiling assay; format: biochemical
T1 construct: purchased Inspiralis, Norwich, UK
Procedure: (§1) The assay for determination of the IC50 values was performed according to previously reported procedures.
(§2) Briefly, inhibitory activities were determined using supercoiling (for DNA gyrase) and relaxation (for topoisomerase IV) assay kits (Inspiralis, Norwich, UK) on streptavidin-coated 96-well microtiter plates from Thermo Scientific Pierce (Thermo Fisher Scientific, Waltham, MA, USA). First, the plates were rehydrated with Wash Buffer and the biotinylated oligonucleotide TFO1 was then immobilized. After washing off the unbound oligonucleotide with Wash Buffer, the enzyme assay was performed. Into each well was added 24 µL of mixture containing 6 µL of Assay Buffer (containing ATP), 0.75 µL of relaxed (for E. coli DNA gyrase supercoiling assay) or supercoiled (for E. coli topoisomerase IV relaxation assay) pNO1 plasmid and 17.25 µL of water. Additionally, 3 µL of a solution of the inhibitor in 10% DMSO containing 0.008% Tween 20 and 3 µL of enzyme (1.5 U) in Dilution Buffer were also added to the wells. […] The TF buffer was added to terminate the enzymatic reaction and after additional incubation for 30 min at room temperature, which allowed for triplex formation (biotin–oligonucleotide–plasmid), the unbound plasmid was washed off using TF buffer. Promega Diamond dye in T10 buffer was then added. […] Here, the compounds were diluted using 2-fold serial dilution steps of the given compound. GraphPad Prism 6.0 software was used to calculate the IC50 values, which were determined in at least two independent measurements, and their means are given as the final result. […] Dose-response curves can be found in Supplementary Materials.

[2] = target: T2, E. coli topoisomerase IV (Escherichia coli, UniProt P0AFI2+P20083); assay: E. coli topoisomerase IV relaxation assay; format: biochemical; conditions: for Inhibition of topoisomerase IV (in words): relaxation assay
T2 construct: purchased Inspiralis, Norwich, UK
Procedure: as §1, §2

[3] = test system: A. baumannii ATCC 17978; assay: MIC broth microdilution, A. baumannii; format: cell-based; conditions: Acinetobacter baumannii, ATCC17978, read-out: MIC A. baumannii ATCC #
Text: (§3) E. coli MG1655 originated from the laboratory collection of Dr. Csaba Pál. […] E. coli K-12 BW25113 single-gene knockout mutant lines ΔdapF, ΔmrcB, ΔsurA, ΔacrB and ΔtolC originated form the Keio collection copy owned by the laboratory of Dr. Csaba Pál.
(§4) Cation-adjusted Mueller Hinton II broth (MHBII) was used for growth of the bacteria under standard laboratory conditions, for antimicrobial susceptibility tests, and for selection of resistant variants. To prepare the MHBII broth, 22 g MHBII powder (containing 3 g beef extract, 17.5 g acid hydrolysate of casein, 1.5 g starch; Becton, Dickinson and Co., Franklin Lakes, NJ, USA) was dissolved in 1 L water. MHBII agar was prepared by addition of 14 g agar (Bacto; Molar Chemicals, Halásztelek, Hungary) to 1 L broth.
(§5) Minimum inhibitory concentrations (MICs) were determined using a standard serial broth microdilution technique, according to the Clinical and Laboratory Standards Institute guidelines. […] For Enterococcus sp., the cells were plated in BHI agar plates, and BHI broth was used to determine the MICs. […] Following the dilutions, each well was seeded with 5 × 10^4 bacterial cells. Each measurement was performed in three parallel replicates, and to avoid possible edge effects in the microwell plates, the outside rows (A, H) were filled with sterile medium. Following the inoculations, the plates were covered with the lids and wrapped in polyethylene plastic bags, to minimize evaporation but to allow O2 transfer. […] After incubation, the OD600 of each well was measured using a microplate reader (Synergy 2; Biotek, Winooski, VT, USA).

[4] = test system: P. aeruginosa ATCC 27863; assay: MIC broth microdilution, P. aeruginosa; format: cell-based; conditions: Pseudomonas aeruginosa
Text: as §3, §4, §5

[5] = test system: K. pneumoniae ATCC 10031; assay: MIC broth microdilution, K. pneumoniae; format: cell-based; conditions: Klebsiella pneumoniae, ATCC10031, read-out: MIC K. pneumoniae ATCC #
Text: as §3, §4, §5

[6] = test system: E. cloacae spp. cloacae ATCC 13047; assay: MIC broth microdilution, E. cloacae; format: cell-based, Enterobacter cloacae; conditions: Enterobacter cloacae, ATCC13047, read-out: MIC E. cloacae spp. cloacae ATCC #
[7] = test system: E. coli ATCC 25922; assay: MIC broth microdilution, E. coli ATCC 25922; format: cell-based; conditions: Escherichia coli, ATCC25922, read-out: MIC E. coli ATCC #
Text: as §3, §4, §5

[8] = test system: E. coli BW25113 WT; assay: MIC, E. coli BW25113 wild-type; format: cell-based; conditions: Escherichia coli, BW25113, read-out: Minimum Inhibitory Concentration E. coli BW# WT
Text: as §3, §4, §5

[9] = test system: E. coli BW25113 ΔacrB; format: cell-based, Escherichia coli
Text: as §3, §4, §5

[10] = test system: E. coli BW25113 ΔdapF; format: cell-based, Escherichia coli
Text: as §3, §4, §5

[11] = test system: E. coli BW25113 ΔmrcB; format: cell-based, Escherichia coli
Text: as §3, §4, §5

[12] = test system: E. coli BW25113 ΔsurA; format: cell-based, Escherichia coli
Text: as §3, §4, §5

[13] = test system: E. coli BW25113 ΔtolC; format: cell-based, Escherichia coli; conditions: for MIC change, ΔtolC mutant versus wild-type E. coli BW25113: improvement of MIC in impaired efflux pump mutant
Text: as §3, §4, §5

[14] = test system: E. coli MG1655 WT; assay: MIC, E. coli MG1655 wild-type with PAβN; format: cell-based, Escherichia coli; conditions: for MIC: Escherichia coli, MG1655, read-out: Minimum Inhibitory Concentration E. coli MG# WT, 50 µg/mL PAβN, molar conversion in parentheses; for Minimum Inhibitory Concentration E. coli MG1655 WT: in the presence of 50 µg/mL PAβN
Text: as §3, §4
as §5, with “USA). […]” for “USA).”

[15] = test system: E. coli MG1655 GyrA S83L, D87N ParC S80I, E84G; assay: microbe, parasite or virus in culture; format: cell-based, Escherichia coli; conditions: for MIC: Escherichia coli, MG1655, read-out: Minimum Inhibitory Concentration E. coli MG# GyrA S83L, D87N ParC S80I, E84G; for Minimum Inhibitory Concentration E. coli MG1655 GyrA S83L, D87N ParC S80I, E84G: in the presence of 50 µg/mL PAβN
Text: as §3, §4, §5
(§6) These mutated amino acids are the most common sites for target-based resistance in E. coli.

[16] = test system: E. coli MG1655 GyrB R136C; assay: microbe, parasite or virus in culture; format: cell-based, Escherichia coli; conditions: for MIC: Escherichia coli, MG1655, read-out: Minimum Inhibitory Concentration E. coli MG# GyrB R#C; for Minimum Inhibitory Concentration E. coli MG1655 GyrB R136C: in the presence of 50 µg/mL PAβN
Text: as §3, §4, §5, §6

[17] = molar conversion in parentheses
[18] = ATCC27863, 18 h, read-out: MIC P. aeruginosa ATCC #
[19] = ATCC27863, read-out: MIC P. aeruginosa ATCC #, molar conversion in parentheses, read-out: MIC P. aeruginosa ATCC 27863

Row | Structure (SMILES) | IC50 [1] [nM] | IC50 [2] [nM] | Inhibition of topoisomerase IV (in words) [2] | MIC ([3]; broth microdilution, 18 h) [µg/mL] | MIC [3, 17] [µM] | MIC [4, 18] [µg/mL] | MIC [4, 19] [µM] | MIC ([5]; broth microdilution, 18 h) [µg/mL] | MIC [5, 17] [µM] | MIC ([6]; broth microdilution, 18 h) [µg/mL] | MIC [6, 17] [µM] | MIC ([7]; broth microdilution, 18 h) [µg/mL] | MIC [7, 17] [µM] | MIC [8, 17] [µM] | MIC ([8]; wild-type) [µg/mL] | Minimum Inhibitory Concentration E. coli BW25113 ΔacrB ([9]; efflux pump mutant) [µg/mL] | Minimum Inhibitory Concentration E. coli BW25113 ΔacrB [9, 17] | Minimum Inhibitory Concentration E. coli BW25113 ΔdapF ([10]; impaired cell-wall mutant) [µg/mL] | Minimum Inhibitory Concentration E. coli BW25113 ΔdapF [10, 17] | Minimum Inhibitory Concentration E. coli BW25113 ΔmrcB ([11]; impaired cell-wall mutant) [µg/mL] | also measured
1 | Cc1[nH]c(C(=O)Nc2nc3c(OCc4ccccc4)cc(C(=O)N4CCN(c5cc6c(cc5F)c(=O)c(C(=O)O)cn6C5CC5)CC4)cc3s2)c(Cl)c1Cl [Compound 3b, 7-(4-(4-(Benzyloxy)-2-(3,4-dichloro-5-methyl-1H-pyrrole-2-carboxamido)benzo[d]thiazole-6-carbonyl)piperazin-1-yl)-1-cyclopropyl-6-fluoro-4-oxo-1,4-dihydroquinoline-3-carboxylic acid] | 3300 ± 1500 | > 10000 | lack of activity | > 64 | > 81 | > 64 | > 81 | > 64 | > 81 | > 64 | > 81 | > 64 | > 81 | > 81 | > 64 | >64 | (>81.0 µM) | >64 | (>81.0 µM) | >64 | Minimum Inhibitory Concentration E. coli BW25113 ΔmrcB [11, 17]: (>81.0 µM); Minimum Inhibitory Concentration E. coli BW25113 ΔsurA ([12]; impaired cell-wall mutant): >64 µg/mL; Minimum Inhibitory Concentration E. coli BW25113 ΔsurA [12, 17]: (>81.0 µM); Minimum Inhibitory Concentration E. coli BW25113 ΔtolC ([13]; efflux pump mutant): 16 µg/mL; Minimum Inhibitory Concentration E. coli BW25113 ΔtolC [13, 17]: (20.3 µM); MIC [14]: 81 µM; Minimum Inhibitory Concentration E. coli MG1655 WT [14]: 64 µg/mL; MIC [15]: > 81 µM; Minimum Inhibitory Concentration E. coli MG1655 GyrA S83L, D87N ParC S80I, E84G [15]: >64 µg/mL; MIC [16]: 40.5 µM; Minimum Inhibitory Concentration E. coli MG1655 GyrB R136C [16]: 32 µg/mL; melting point: > 300 °C
2 | Cc1[nH]c(C(=O)Nc2nc3ccc(C(=O)N4CCN(c5cc6c(cc5F)c(=O)c(C(=O)O)cn6C5CC5)CC4)cc3s2)c(Cl)c1Cl [Compound 3a, 1-Cyclopropyl-7-(4-(2-(3,4-dichloro-5-methyl-1H-pyrrole-2-carboxamido)benzo[d]thiazole-6-carbonyl)piperazin-1-yl)-6-fluoro-4-oxo-1,4-dihydroquinoline-3-carboxylic acid] | 450 ± 180 | 1000 ± 150 | low micromolar | 16 | 23.4 | 64 | 93.6 | 0.5 | 0.73 | 4 | 5.85 | 2 | 2.93 | 5.85 | 4 | 4 | (5.85 µM) | 4 | (5.85 µM) | 4 | Minimum Inhibitory Concentration E. coli BW25113 ΔmrcB [11, 17]: (5.85 µM); Minimum Inhibitory Concentration E. coli BW25113 ΔsurA ([12]; impaired cell-wall mutant): 4 µg/mL; Minimum Inhibitory Concentration E. coli BW25113 ΔsurA [12, 17]: (5.85 µM); Minimum Inhibitory Concentration E. coli BW25113 ΔtolC ([13]; efflux pump mutant): 1 µg/mL; MIC change, ΔtolC mutant versus wild-type E. coli BW25113 [13]: 4 fold; Minimum Inhibitory Concentration E. coli BW25113 ΔtolC [13, 17]: (1.46 µM); MIC [14]: 0.73 µM; Minimum Inhibitory Concentration E. coli MG1655 WT [14]: 0.5 µg/mL; MIC [15]: 23.4 µM; Minimum Inhibitory Concentration E. coli MG1655 GyrA S83L, D87N ParC S80I, E84G [15]: 16 µg/mL; MIC [16]: 0.73 µM; Minimum Inhibitory Concentration E. coli MG1655 GyrB R136C [16]: 0.5 µg/mL; melting point: > 300 °C
3 | Cc1[nH]c(C(=O)Nc2nc3ccc(C(=O)NCC(=O)N4CCN(c5cc6c(cc5F)c(=O)c(C(=O)O)cn6C5CC5)CC4)cc3s2)c(Cl)c1Cl [Compound 7a, 1-Cyclopropyl-7-(4-((2-(3,4-dichloro-5-methyl-1H-pyrrole-2-carboxamido)benzo[d]thiazole-6-carbonyl)glycyl)piperazin-1-yl)-6-fluoro-4-oxo-1,4-dihydroquinoline-3-carboxylic acid] | 92 ± 10 | 2500 ± 1300 | low micromolar | > 64 | > 86.4 | > 64 | > 86.4 | 4 | 5.4 | > 64 | > 86.4 | > 64 | > 86.4 | > 86.4 | > 64 | >64 | (>86.4 µM) | >64 | (>86.4 µM) | >64 | Minimum Inhibitory Concentration E. coli BW25113 ΔmrcB [11, 17]: (>86.4 µM); Minimum Inhibitory Concentration E. coli BW25113 ΔsurA ([12]; impaired cell-wall mutant): >64 µg/mL; Minimum Inhibitory Concentration E. coli BW25113 ΔsurA [12, 17]: (>86.4 µM); Minimum Inhibitory Concentration E. coli BW25113 ΔtolC ([13]; efflux pump mutant): 2 µg/mL; MIC change, ΔtolC mutant versus wild-type E. coli BW25113 [13]: above 32 fold; Minimum Inhibitory Concentration E. coli BW25113 ΔtolC [13, 17]: (2.70 µM); MIC [14]: 1.35 µM; Minimum Inhibitory Concentration E. coli MG1655 WT [14]: 1 µg/mL; MIC [15]: 0.675 µM; Minimum Inhibitory Concentration E. coli MG1655 GyrA S83L, D87N ParC S80I, E84G [15]: 0.5 µg/mL; MIC [16]: 2.7 µM; Minimum Inhibitory Concentration E. coli MG1655 GyrB R136C [16]: 2 µg/mL
